Ki data for 15 compounds are collected here from patent publication US20250312499A1, “KISSPEPTIN RECEPTOR (KISS1R) TARGETED THERAPEUTICS AND USES THEREOF” (priority 2024, published 2025).

One may read the Ki as the equilibrium dissociation constant of an inhibitor or competing ligand from its target.

Each structure is given as a SMILES string. Numbered stars: 1 amine (or outer) side, 2 acyl side, 3 side chain; on linkers, the order of the positions; unused ones are H or OH. Square brackets hold non-standard residues; d marks the D form. Peptide text beside a SMILES is read from it. * marks the point of attachment. DOTA = O=C(O)CN1CCN(CC(=O)O)CCN(CC(=O)*)CCN(CC(=O)O)CC1; Gly(N-(3-F-4-Me-benzyl)) = Cc1ccc(CNCC(=O)*)cc1F; Acetyl(2-(HOCH2CH2OCH2CH2O)) = O=C(COCCOCCO)*; Phe(4-CN) = N#Cc1ccc(C[C@H](N)C(=O)O)cc1; X3 = CNC(=N)N1CCC(N[*:1])(C(=O)[*:2])CC1; Phe(3-F) = N[C@@H](Cc1cccc(F)c1)C(=O)O; 2Nal = N[C@@H](Cc1ccc2ccccc2c1)C(=O)O; Trx = NC[C@H]1CC[C@H](C(=O)O)CC1; 4Pal = N[C@@H](Cc1ccncc1)C(=O)O; 4Abz = Nc1ccc(C(=O)O)cc1; Api = NC1(C(=O)O)CCNCC1; AEEA = NCCOCCOCC(=O)O; Ahx = NCCCCCC(=O)O; azaGly = NNC(=O)O

Sequence of human kisspeptin receptor (Q969F8 whole entry): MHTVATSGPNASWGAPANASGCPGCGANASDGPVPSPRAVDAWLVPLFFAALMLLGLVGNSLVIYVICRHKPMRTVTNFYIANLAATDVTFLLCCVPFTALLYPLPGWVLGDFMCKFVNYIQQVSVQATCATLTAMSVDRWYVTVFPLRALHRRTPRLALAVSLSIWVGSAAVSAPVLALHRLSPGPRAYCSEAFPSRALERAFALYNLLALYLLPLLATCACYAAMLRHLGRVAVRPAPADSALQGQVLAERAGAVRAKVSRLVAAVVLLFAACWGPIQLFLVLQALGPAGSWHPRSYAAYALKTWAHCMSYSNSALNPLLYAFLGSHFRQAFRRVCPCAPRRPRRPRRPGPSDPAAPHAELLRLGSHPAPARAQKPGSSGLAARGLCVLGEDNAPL

In this assay the target is human kisspeptin receptor (Homo sapiens (Human), UniProt Q969F8). Briefly: Human KISS1R binding assay (membrane competition binding). As to conditions: 90 min at room temperature; competition with 0.2 nM [125I]-metastin (45-54); Flp-In T-Rex 293 kisspeptin membranes; metal complexes nonradioactive Ga, In, Lu; read-out: hKiSSR Binding Ki (90 min). Here is the method:
Crude membrane fractions are prepared from Flp-In T-Rex 293 (Thermo Fisher) cell line expressing the human kisspeptin receptor. The cells are grown to 85-100% confluence on standard tissue culture dishes in Dulbecco's Modified Eagles Medium (DMEM) (Corning) supplemented with 10% FBS (Gemini), 1% penicillin-streptomycin-glutamine (Gibco), 500 μg/mL hygromycin, and 15 μg/mL blastacidin. 48 hrs prior to preparing membranes 10 μg/ml of tetracycline is added to the culture media to induce receptor expression. To prepare membranes, cells are scraped and collected in 1× Dulbecco's phosphate buffered saline (Corning) and then pelleted at 1000 RPMs. The cell pellet is reconstituted in membrane preparation buffer (20 mM HEPES, 6 mM MgCl2 and 1 mM EGTA, protease inhibitor tablets (Pierce), pH 7.4) and placed in a cell disruption vessel (Parr Instrument company) at 1000 PSI for 30 min on ice. The pressurized contents are then released and spun down at 1000 RPMs and the supernatant is collected and further centrifuged at 15,000 RPMs to pellet the membranes. The membrane pellet is resuspended in membrane preparation buffer, snap frozen and stored at −80° C. for later use.
The human kisspeptin membrane binding assay utilizes the following components: radiolabel [^125I]-metastin (45-54) (human) (Perkinhmer), crude Flp-In T-Rex 293 kisspeptin membranes, and competing small molecule and peptide ligands. The assay is initiated by combining in assay buffer (50 mM TrisHCl, 5 mM MgCl2, 2 mM EGTA, 10 mM CaCl2, 0.1% BSA, pH 7.4) a dose response of competing ligand (final concentrations are typically 0-10,000 nM), 5-10 μg of Flp-In T-Rex 293 kisspeptin membranes, and 0.2 n M [^125I]-metastin (45-54) in a 96-well assay plate and allowed to incubate 90 minutes at room temperature. Assay contents are then filtered through unifilter CF/C: microplates (PerkinElmer) pre-soaked with 0.5% BSA and washed with 9×400 μL of cold wash buffer (10 mM HEPES, 500 mM NaCl, 0.1% Tween-20, pH7.4). Assay plates are read using a Microbeta^2 (PerkinElmer) and Ki values for compounds are determined using a GraphPad Prism 9.3 non-linear regression analysis.
Regarding `Cc1ccc(CNCC(=O)N2CCC(NC(=O)[C@H](CC(C)C)NC(=O)NNC(=O)[C@H](Cc3cccc(F)c3)NC(=O)[C@@H](NC(=O)[C@H](CC(N)=O)NC(=O)[C@H](CCC(=O)O)NC(=O)[C@@H](Cc3ccc(O)cc3)NC(=O)CCCCCNC(=O)CN3CCN(CC(=O)O)CCN(CC(=O)O)CCN(CC(=O)O)CC3)[C@@H](C)O)(C(=O)N[C@@H](Cc3c[nH]c4ccccc34)C(N)=O)CC2)cc1F` [Compound 36] ({DOTA-Ahx}-[dY]ENT[Phe(3-F)][azaGly]L[Api](Gly(N-(3-F-4-Me-benzyl)))W-NH2), the Ki is under 10 nM.

Take `Cc1ccc(CNCC(=O)N2CCC(NC(=O)[C@H](CC(C)C)NC(=O)NNC(=O)[C@H](Cc3ccccc3)NC(=O)[C@@H](N)CCCCNC(=O)CN3CCN(CC(=O)O)CCN(CC(=O)O)CCN(CC(=O)O)CC3)(C(=O)N[C@@H](Cc3c[nH]c4ccccc34)C(N)=O)CC2)cc1F` [Compound 37] (H-K(DOTA)F[azaGly]L[Api](Gly(N-(3-F-4-Me-benzyl)))W-NH2): the Ki was under 10 nM.

In the case of `Cc1ccc(CNCC(=O)N2CCC(NC(=O)[C@H](CC(C)C)NC(=O)NNC(=O)[C@H](Cc3ccccc3)NC(=O)[C@H]3CC[C@H](CNC(=O)CCCCCNC(=O)CN4CCN(CC(=O)O)CCN(CC(=O)O)CCN(CC(=O)O)CC4)CC3)(C(=O)N[C@@H](Cc3c[nH]c4ccccc34)C(N)=O)CC2)cc1F` [Compound 38] ({DOTA-Ahx-Trx}-F[azaGly]L[Api](Gly(N-(3-F-4-Me-benzyl)))W-NH2), the Ki was over 100 nM.

As for `Cc1ccc(CNCC(=O)N2CCC(NC(=O)[C@H](CC(C)C)n3cc([C@H](Cc4ccccc4)NC(=O)[C@H](N)CCCCNC(=O)CN4CCN(CC(=O)O)CCN(CC(=O)O)CCN(CC(=O)O)CC4)nn3)(C(=O)N[C@@H](Cc3c[nH]c4ccccc34)C(N)=O)CC2)cc1F` [Compound 39], the Ki is over 100 nM.

Take `Cc1ccc(CNCC(=O)N2CCC(NC(=O)[C@H](CC(C)C)NC(=O)NNC(=O)[C@H](Cc3ccccc3)NC(=O)CN3CCN(CC(=O)O)CCN(CC(=O)O)CCN(CC(=O)O)CC3)(C(=O)N[C@@H](Cc3c[nH]c4ccccc34)C(N)=O)CC2)cc1F` [Compound 49] ({DOTA}-F[azaGly]L[Api](Gly(N-(3-F-4-Me-benzyl)))W-NH2): the Ki is over 100 nM.

As for `Cc1ccc(CNCC(=O)N2CCC(NC(=O)[C@H](CC(C)C)NC(=O)NNC(=O)[C@H](Cc3ccccc3)NC(=O)c3ccc(NC(=O)CN4CCN(CC(=O)O)CCN(CC(=O)O)CCN(CC(=O)O)CC4)cc3)(C(=O)N[C@@H](Cc3c[nH]c4ccccc34)C(N)=O)CC2)cc1F` [Compound 50] ({DOTA-4Abz}-F[azaGly]L[Api](Gly(N-(3-F-4-Me-benzyl)))W-NH2), the Ki is under 10 nM.

With `Cc1ccc(CNCC(=O)N2CCC(NC(=O)[C@@H](/C=C/CNC(=O)[C@H](Cc3ccccc3)NC(=O)CCCCCNC(=O)CN3CCN(CC(=O)O)CCN(CC(=O)O)CCN(CC(=O)O)CC3)CC(C)C)(C(=O)N[C@@H](Cc3c[nH]c4ccccc34)C(N)=O)CC2)cc1F` [Compound 51], the Ki was under 10 nM.

In the case of `Cc1ccc(CNCC(=O)N2CCC(NC(=O)[C@H](CC(C)C)NC(=O)NNC(=O)[C@H](Cc3ccccc3)NC(=O)CCCCCNC(=O)CN3CCN(CC(=O)O)CCN(CC(=O)O)CCN(CC(=O)O)CC3)(C(=O)N[C@@H](Cc3ccccc3)C(N)=O)CC2)cc1F` [Compound 55] ({DOTA-Ahx}-F[azaGly]L[Api](Gly(N-(3-F-4-Me-benzyl)))F-NH2), the Ki was under 10 nM.

With `Cc1ccc(CNCC(=O)N2CCC(NC(=O)[C@H](CC(C)C)NC(=O)NNC(=O)[C@H](Cc3ccccc3)NC(=O)[C@@H](NC(=O)[C@H](CC(N)=O)NC(=O)[C@@H](Cc3c[nH]c4ccccc34)NC(=O)[C@@H](Cc3ccc(O)cc3)NC(=O)COCCOCCNC(=O)CN3CCN(CC(=O)O)CCN(CC(=O)O)CCN(CC(=O)O)CC3)[C@@H](C)O)(C(=O)N[C@@H](Cc3c[nH]c4ccccc34)C(N)=O)CC2)cc1F` [Compound 57] ({DOTA-AEEA}-[dY][dW]NTF[azaGly]L[Api](Gly(N-(3-F-4-Me-benzyl)))W-NH2), the Ki is under 10 nM.

Turning to `Cc1ccc(CNCC(=O)N2CCC(NC(=O)[C@H](CC(C)C)NC(=O)NNC(=O)[C@H](Cc3ccccc3)NC(=O)[C@@H](NC(=O)[C@H](CC(N)=O)NC(=O)[C@H](Cc3ccc4ccccc4c3)NC(=O)[C@@H](Cc3ccc(O)cc3)NC(=O)COCCOCCNC(=O)CN3CCN(CC(=O)O)CCN(CC(=O)O)CCN(CC(=O)O)CC3)[C@@H](C)O)(C(=O)N[C@@H](Cc3c[nH]c4ccccc34)C(N)=O)CC2)cc1F` [Compound 58] ({DOTA-AEEA}-[dY][2Nal]NTF[azaGly]L[Api](Gly(N-(3-F-4-Me-benzyl)))W-NH2), the Ki was under 10 nM.

On to `Cc1ccc(CNCC(=O)N2CCC(NC(=O)[C@H](CC(C)C)NC(=O)NNC(=O)[C@H](Cc3cccc(F)c3)NC(=O)[C@@H](NC(=O)[C@H](CC(N)=O)NC(=O)[C@H](CCCCNC(=O)CN3CCN(CC(=O)O)CCN(CC(=O)O)CCN(CC(=O)O)CC3)NC(=O)[C@@H](Cc3ccc(O)cc3)NC(=O)COCCOCCO)[C@@H](C)O)(C(=O)N[C@@H](Cc3c[nH]c4ccccc34)C(N)=O)CC2)cc1F` [Compound 64] ({Acetyl(2-(HOCH2CH2OCH2CH2O))}-[dY]K(DOTA)NT[Phe(3-F)][azaGly]L[Api](Gly(N-(3-F-4-Me-benzyl)))W-NH2), for which the Ki was under 10 nM.

On to `CNC(=N)N1CCC(NC(=O)[C@H](CC(C)C)NC(=O)NNC(=O)[C@H](Cc2ccccc2)NC(=O)[C@@H](NC(=O)[C@H](CC(N)=O)NC(=O)[C@@H](Cc2c[nH]c3ccccc23)NC(=O)[C@@H](Cc2ccc(O)cc2)NC(=O)CCCCCNC(=O)CN2CCN(CC(=O)O)CCN(CC(=O)O)CCN(CC(=O)O)CC2)[C@@H](C)O)(C(=O)N[C@@H](Cc2c[nH]c3ccccc23)C(N)=O)CC1` [Compound 91] ({DOTA-Ahx}-[dY][dW]NTF[azaGly]L[X3]W-NH2), for which the Ki was under 10 nM.

`Cc1ccc(CNCC(=O)N2CCC(NC(=O)[C@H](CC(C)C)NC(=O)NNC(=O)[C@H](Cc3ccccc3)NC(=O)[C@@H](NC(=O)[C@H](CC(N)=O)NC(=O)[C@@H](Cc3c[nH]c4ccccc34)NC(=O)[C@@H](Cc3ccc(O)cc3)NC(=O)CCCCCNC(=O)CN3CCN(CC(=O)O)CCN(CC(=O)O)CCN(CC(=O)O)CC3)[C@@H](C)O)(C(=O)N[C@@H](Cc3ccc(C#N)cc3)C(N)=O)CC2)cc1F` [Compound 104] ({DOTA-Ahx}-[dY][dW]NTF[azaGly]L[Api](Gly(N-(3-F-4-Me-benzyl)))[Phe(4-CN)]-NH2): the inhibition constant Ki is under 10 nM.

For `Cc1ccc(CNCC(=O)N2CCC(NC(=O)[C@H](CC(C)C)NC(=O)NNC(=O)[C@H](Cc3ccccc3)NC(=O)[C@@H](NC(=O)[C@H](CC(N)=O)NC(=O)[C@@H](Cc3c[nH]c4ccccc34)NC(=O)[C@@H](Cc3ccc(O)cc3)NC(=O)CCCCCNC(=O)CN3CCN(CC(=O)O)CCN(CC(=O)O)CCN(CC(=O)O)CC3)[C@@H](C)O)(C(=O)N[C@@H](Cc3ccncc3)C(N)=O)CC2)cc1F` [Compound 105] ({DOTA-Ahx}-[dY][dW]NTF[azaGly]L[Api](Gly(N-(3-F-4-Me-benzyl)))[4Pal]-NH2), the Ki was under 10 nM.

Turning to `Cc1ccc(CNCC(=O)N2CCC(NC(=O)[C@H](CC(C)C)NC(=O)NNC(=O)[C@H](Cc3ccccc3)NC(=O)[C@@H](NC(=O)[C@H](CC(N)=O)NC(=O)[C@@H](Cc3c[nH]c4ccccc34)NC(=O)[C@H](CC(N)=O)NC(=O)[C@@H](Cc3ccc(O)cc3)NC(=O)CCCCCNC(=O)CN3CCN(CC(=O)O)CCN(CC(=O)O)CCN(CC(=O)O)CC3)[C@@H](C)O)(C(=O)N[C@@H](Cc3ccncc3)C(N)=O)CC2)cc1F` [Compound 106] ({DOTA-Ahx}-[dY]N[dW]NTF[azaGly]L[Api](Gly(N-(3-F-4-Me-benzyl)))[4Pal]-NH2), the Ki is under 10 nM.
